From publication PMC9386001, “Identification of naturally occurring inhibitors in Xian-Ling-Gu-Bao capsule against the glucuronidation of estrogens” (Frontiers in Pharmacology, 2022)
Where two headings read alike, the source gives them in different places.

T1: UGT2B7 (Homo sapiens, UniProt P16662)
T1 sequence (P16662 24-529): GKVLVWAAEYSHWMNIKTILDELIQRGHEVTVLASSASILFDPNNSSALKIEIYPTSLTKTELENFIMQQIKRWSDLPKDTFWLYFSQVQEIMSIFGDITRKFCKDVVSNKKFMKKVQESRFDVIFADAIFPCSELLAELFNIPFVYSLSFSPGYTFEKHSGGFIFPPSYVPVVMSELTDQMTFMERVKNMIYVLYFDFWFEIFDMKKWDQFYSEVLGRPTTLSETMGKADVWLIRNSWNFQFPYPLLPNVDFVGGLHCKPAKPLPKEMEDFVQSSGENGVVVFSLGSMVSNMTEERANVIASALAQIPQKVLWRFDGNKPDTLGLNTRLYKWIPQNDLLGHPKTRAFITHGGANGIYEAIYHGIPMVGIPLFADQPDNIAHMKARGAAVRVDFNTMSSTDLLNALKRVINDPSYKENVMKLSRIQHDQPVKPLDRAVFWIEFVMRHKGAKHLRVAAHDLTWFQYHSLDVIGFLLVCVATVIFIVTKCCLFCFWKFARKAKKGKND

T2: UGT1A1 (Homo sapiens, UniProt P22309)
T2 sequence (P22309 26-533): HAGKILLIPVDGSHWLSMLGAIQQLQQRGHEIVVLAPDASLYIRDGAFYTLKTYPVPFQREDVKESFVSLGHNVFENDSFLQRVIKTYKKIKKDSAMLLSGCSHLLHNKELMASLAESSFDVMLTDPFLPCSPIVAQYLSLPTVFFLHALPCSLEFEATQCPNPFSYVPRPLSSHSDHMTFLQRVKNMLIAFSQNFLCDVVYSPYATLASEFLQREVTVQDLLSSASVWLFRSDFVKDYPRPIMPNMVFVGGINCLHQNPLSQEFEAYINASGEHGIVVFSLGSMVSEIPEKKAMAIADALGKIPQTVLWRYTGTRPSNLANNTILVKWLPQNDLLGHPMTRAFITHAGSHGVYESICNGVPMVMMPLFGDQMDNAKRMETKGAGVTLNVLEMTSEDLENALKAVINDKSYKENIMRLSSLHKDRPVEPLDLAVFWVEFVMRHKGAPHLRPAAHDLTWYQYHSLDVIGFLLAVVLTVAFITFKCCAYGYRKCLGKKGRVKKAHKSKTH

T3: UGT1A10 (Homo sapiens, UniProt Q9HAW8)
T3 sequence (Q9HAW8 26-530): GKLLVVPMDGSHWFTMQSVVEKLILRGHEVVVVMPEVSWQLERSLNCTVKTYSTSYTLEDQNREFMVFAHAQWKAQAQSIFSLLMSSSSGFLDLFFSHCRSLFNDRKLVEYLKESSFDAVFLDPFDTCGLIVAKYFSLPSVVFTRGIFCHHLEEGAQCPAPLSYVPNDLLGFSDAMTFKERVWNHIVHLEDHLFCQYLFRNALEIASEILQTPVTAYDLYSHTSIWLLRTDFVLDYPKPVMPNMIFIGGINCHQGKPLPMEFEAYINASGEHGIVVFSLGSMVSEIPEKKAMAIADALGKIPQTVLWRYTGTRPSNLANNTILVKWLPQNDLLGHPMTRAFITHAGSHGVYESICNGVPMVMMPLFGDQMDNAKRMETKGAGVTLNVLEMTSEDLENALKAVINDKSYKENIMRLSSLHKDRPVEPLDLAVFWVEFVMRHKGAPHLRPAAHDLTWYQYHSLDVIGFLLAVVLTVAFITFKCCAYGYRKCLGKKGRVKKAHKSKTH


Tests used:
[1] = biological target: T1, UGT2B7; assay: Inhibition of UGT2B7 (zidovudine-N-glucuronidation); settings: for Inhibitory type: best model by smallest AIC and SC; for activity at 10 µM: human, probe zidovudine (AZT); for α: mixed-type inhibition model, αKi
Description: (§1) The final volume of solvent in incubations was 1%. In addition, emodin, atazanavir, and diclofenac were considered as positive controls for UGT1A10, UGT1A1, and UGT2B7, respectively.
(§2) Competitive inhibition, non-competitive inhibition, and mixed-type inhibition models were used to estimate the Ki values by nonlinear regression based on Eqs 6–8, respectively.

[2] = biological target: T2, UGT1A1; assay: Inhibition of UGT1A1 (β-estradiol-3-O-glucuronidation); settings: for Inhibitory type: best model by smallest AIC and SC; for activity at 10 µM: human
Description: as §1, §2

[3] = biological target: T3, UGT1A10; assay: Inhibition of UGT1A10 (4-methylumbelliferone-O-glucuronidation); settings: for activity at 10 µM: human, expressed human UGT1A10 enzyme, probe 4-methylumbelliferone (4-MU); for Inhibitory type: best model by smallest AIC and SC
Description: as §1, §2

[4] = test system: UGT1A1; set-up: method as in Wang et al., 2015a; settings: ref Wang et al., 2015a; cited from earlier work
[5] = substrate: C[C@]12CC[C@@H]3c4ccc(O)cc4CC[C@H]3[C@@H]1C[C@@H](O)[C@@H]2O; assay: cells, lysate or membranes named; settings: other: UGT2B7; 16-O-glucuronide formation; pH 7.4; 37.0 °C
Description: In brief, incubation mixtures (100 μL) contained Tris-HCl buffer solution (50 mM, pH = 7.4), microsomes (HLM, HIM, 0.5 mg/ml) or UGT enzymes (1 mg/ml), MgCl2 (0.88 mM), alamethicin (22 μg/ml), and D-saccharic-1,4-lactone (4.4 mM) and respective substrate. The volume of organic solvent in incubation mixtures was kept below 1%. After pre-incubation at 37°C for 5 min, the reaction was commenced with the addition of UDPGA (4 mM) and subsequently incubated at 37°C for a period. The reaction was terminated by adding 100 μL of cold acetonitrile. Then, the incubation mixtures were vortexed and centrifuged at 13,800 g for 10 min to collect the supernatant for analysis.
All experiments were performed in triplicate.
Glucuronidation rates were expressed as the amounts of formed metabolites per minute per milligram protein (pmol/min/mg protein) based on Eq. 1. Furthermore, kinetic characteristics were evaluated from the suitable curves based on the profile of the Eadie–Hofstee plot, and corresponding kinetic parameters were estimated using Eqs 2–4. Appropriated model fitting was performed by GraphPad Prism V5 software (San Diego, CA).
The intrinsic clearance (CL int ) was derived from V max /K m for Michaelis–Menten and substrate inhibition models, and the maximal clearance (CL max ) was obtained using Eq. 5 for Hill kinetics.

[6] = UGT2B7 enzyme (optimized UGT2B7 incubation system)
[7] = human UGT1A1 enzyme, probe β-estradiol (E2)

IC50 [1]	Inhibitory type ([1]; UGT2B7)	activity at 10 µM [1, 6]	IC50 [2]	Ki [2]	Inhibitory type ([2]; UGT1A1)	activity at 10 µM [2, 7]	activity at 10 µM [3]	IC50 [3]	Ki [3]	Inhibitory type ([3]; UGT1A10)	Molecule	other results
4650 ± 520 nM	Competitive	27.2%	530 ± 70 nM	1100 ± 80 nM	Non-competitive	13%					CC(C)=CCc1cc(C(=O)/C=C/c2ccc(O)cc2)c(O)cc1O [Bavachalcone, bavachalcone]	Ki [1]: 1870 ± 200 nM
							52.4%				Cc1cc(O)c2c(c1)C(=O)c1cc(O)cc(O)c1C2=O [emodin, reference compound]	
1170 ± 100 nM	Mixed type	10.2%	2860 ± 140 nM	780 ± 160 nM	Non-competitive	7.42%	31.1%	3990 ± 670 nM	2600 ± 230 nM	Competitive	CC(C)=CCc1cc(-c2coc3cc(O)ccc3c2=O)ccc1O [Neobavaisoflavone, neobavaisoflavone]	Ki [1]: 390 ± 30 nM; α ([1]; UGT2B7): 5.15 ± 2.08
			3280 ± 1200 nM	6010 ± 470 nM	Non-competitive	35.5%	26.5%	1390 ± 330 nM	1920 ± 260 nM	Competitive	COc1ccc(-c2oc3c(CC=C(C)C)c(O[C@@H]4O[C@H](CO)[C@@H](O)[C@H](O)[C@H]4O)cc(O)c3c(=O)c2O)cc1 [Icariside I, icariside I]	
			1950 ± 150 nM	980 ± 230 nM	Non-competitive	1.48%					CC(C)=CCc1cc2c(cc1O)oc(=O)c1c3ccc(O)cc3oc21 [Psoralidin, psoralidin]	
			1280 ± 260 nM	420 ± 170 nM	Non-competitive	10.2%					COc1ccc(-c2oc3c(CC=C(C)C)c(O)cc(O)c3c(=O)c2O)cc1 [Icaritin, icaritin]	
4550 ± 430 nM	Competitive	35.5%									C=C[C@@](C)(/C=C/c1ccc(O)cc1)CCC=C(C)C [Bakuchiol, bakuchiol]	
	Competitive									Competitive	bavachinin	residual activity (Figures 3G–I, UGT2B7) ([1]; 10 μM, % of negative control): 13.23%; IC50 ([1]; UGT2B7, substrate AZT): 2270 ± 260 nM; Ki ([1]; UGT2B7, substrate AZT): 1110 ± 170 nM; residual activity of UGT1A10 ([3]; 10 μM, % of negative control): 37.70%; IC50 ([3]; UGT1A10, substrate 4-MU): 5420 ± 640 nM; Ki ([3]; UGT1A10, substrate 4-MU): 3290 ± 230 nM
880 ± 80 nM	Mixed type	0%	440 ± 50 nM	440 ± 70 nM	Competitive	0.72%	13.9%	2910 ± 340 nM	780 ± 60 nM	Non-competitive	CC(C)=CCC/C(C)=C/Cc1cc(-c2coc3cc(O)ccc3c2=O)ccc1O [Corylifol A, corylifol A]	Ki [1]: 360 ± 70 nM; α ([1]; UGT2B7): 5.17 ± 3.55; Ki [4]: < 1000 nM
110 ± 10 nM	Competitive	0%	1730 ± 110 nM		Competitive	4.58%	20.4%	3620 ± 360 nM	1810 ± 280 nM	Non-competitive	CC(C)=CCc1c(O)ccc2c1O[C@H](c1ccc(O)cc1)CC2=O [Isobavachin, isobavachin]	Ki ([1]; UGT2B7, substrate AZT): 20 ± 10 nM; Ki ([2]; UGT1A1, substrate E2): 3350 ± 530 nM
4970 ± 550 nM	Mixed type	32.5%	610 ± 20 nM	400 ± 50 nM	Non-competitive	2.43%	35.6%	5630 ± 460 nM	2810 ± 210 nM	Competitive	CC(C)=CCc1cc2c(cc1O)O[C@H](c1ccc(O)cc1)CC2=O [Bavachin, bavachin]	Ki [1]: 640 ± 160 nM; α ([1]; UGT2B7): 69.70 ± 6.67; Ki [4]: < 1000 nM
											O=C(O)Cc1ccccc1Nc1c(Cl)cccc1Cl [diclofenac, reference compound]	activity at 10 µM ([1]; expressed human UGT2B7 enzyme): 53.9%
											COC(=O)N[C@H](C(=O)N[C@@H](Cc1ccccc1)[C@@H](O)CN(Cc1ccc(-c2ccccn2)cc1)NC(=O)[C@@H](NC(=O)OC)C(C)(C)C)C(C)(C)C [atazanavir, reference compound]	activity at 10 µM ([2]; expressed human UGT1A1 enzyme, probe β-estradiol (E2)): 4.38%
							37.3%	5940 ± 1240 nM	9770 ± 820 nM		COc1ccc(-c2oc3c(CC=C(C)C)c(O[C@@H]4O[C@H](CO)[C@@H](O)[C@H](O)[C@H]4O)cc(O)c3c(=O)c2O[C@@H]2O[C@@H](C)[C@H](O)[C@@H](O)[C@H]2O)cc1 [Icariin, icariin]	
1380 ± 220 nM	Competitive	0%	1650 ± 150 nM	1200 ± 120 nM	Non-competitive	3.97%	8.61%	2800 ± 300 nM	1660 ± 190 nM	Non-competitive	CC(C)=CCc1c(O)ccc(C(=O)/C=C/c2ccc(O)cc2)c1O [Isobavachalcone, isobavachalcone]	Ki [1]: 300 ± 70 nM
											UGT2B7 (Homo sapiens) (protein) GKVLVWAAEYSHWMNIKTILDELIQRGHEVTVLASSASILFDPNNSSALKIEIYPTSLTKTELENFIMQQIKRWSDLPKDTFWLYFSQVQEIMSIFGDITRKFCKDVVSNKKFMKKVQESRFDVIFADAIFPCSELLAELFNIPFVYSLSFSPGYTFEKHSGGFIFPPSYVPVVMSELTDQMTFMERVKNMIYVLYFDFWFEIFDMKKWDQFYSEVLGRPTTLSETMGKADVWLIRNSWNFQFPYPLLPNVDFVGGLHCKPAKPLPKEMEDFVQSSGENGVVVFSLGSMVSNMTEERANVIASALAQIPQKVLWRFDGNKPDTLGLNTRLYKWIPQNDLLGHPKTRAFITHGGANGIYEAIYHGIPMVGIPLFADQPDNIAHMKARGAAVRVDFNTMSSTDLLNALKRVINDPSYKENVMKLSRIQHDQPVKPLDRAVFWIEFVMRHKGAKHLRVAAHDLTWFQYHSLDVIGFLLVCVATVIFIVTKCCLFCFWKFARKAKKGKND	K0.5 [5]: 9.92 ± 0.69 µM; Vmax [5]: 0.00788 µmol/min/mg; Vmax/Km [5]: 794 µL/min/mg

Molecule	IC50 [1]	Inhibitory type ([1]; UGT2B7)	activity at 10 µM [1, 6]	IC50 [2]	Ki [2]	Inhibitory type ([2]; UGT1A1)	activity at 10 µM [2, 7]	activity at 10 µM [3]	IC50 [3]	Ki [3]	Inhibitory type ([3]; UGT1A10)	other results
icariside II		Competitive				Competitive					Competitive	
O=C(C=Cc1ccc(O)c2c1C(C(=O)OC(Cc1ccc(O)c(O)c1)C(=O)O)C(c1ccc(O)c(O)c1)O2)OC(Cc1ccc(O)c(O)c1)C(=O)O (centres unmarked) [Salvianolic acid B, salvianolic acid B]				3780 ± 530 nM	2160 ± 210 nM	Competitive						activity at 10 µM [2]: 36.2%
